How the values were obtained:
LV, SP and LNs = experiment: Whole organ transcriptome across organs (adjuvant gene space): gene responses and adjuvant grouping; format: in vivo, C57BL/6 mice; conditions: hierarchical clustering; LV, SP and/or LNs
[1] = test system: adjuvant-associated biological themes in LV, SP, LN
Excerpt: A defined sets of genes were selected according to specified criteria (e.g., FC, PA-call, threshold values). Their functional enrichment values were then obtained from TargetMine (Chen, Y. A., Tripathi, L. P. & Mizuguchi, K. PloS one 6, e17844 (2011)) (http://targetmine.mizuguchilab.org/) using the API interface. The following resources were used throughout the analysis via TargetMine Interface (GO, GOSlim, Integrated Pathway, KEGG, Reactome, and the NCI pathway). The Holm-Bonferroni method was used for multiple testing corrections.
Whole organ transcriptome data for each organ from each mouse were analyzed as follows to obtain biological themes for individual samples from each adjuvant-administered group of three mice. […] A set of Pj genes was first defined, where eij/ei(c)>2.0. Biological themes enriched within Pj were then identified using TargetMine (Chen, Y. A. et al., PloS one 6, e17844 (2011)) (http://targetmine.mizuguchilab.org/). Tj denote the resulting list of biological themes, with associated p-values from Fischer's exact test.
Next, the biological themes called by all the individual samples in the group were scored as follows. Having obtained three lists (T1, T2 and T3) for a given experimental condition, a consensus list T of themes was created as T={(t1, p1), (t2, p2), . . . }, where ti is a biological theme that appears in all of T1, T2 and T3, and pi is the smallest of the associated p-values. Only the themes with the p-value of <0.05 were included in T.
To summarize the biological themes in T further, a list of terms considered to be associated with adjuvant activity in general was separately prepared. AT={at1, at2, . . . }, where ati is a pre-selected adjuvant-associated term (e.g., “stress” or “cytokine”). Finally, an enrichment score S for an adjuvant-associated term ati was defined as: S(ati)=Σ−log(pj), where the name of tj in T includes a term ati as a substring and pj is the associated p-value.
This scoring scheme summarizes the relative enrichment of pre-selected adjuvant-associated terms in genes responding to each adjuvant in each organ.

Cc1ccc2c(=O)c3cccc(CC(=O)O)c3oc2c1C [DMXAA, 5,6-dimethylxanthenone-4-acetic acid]
adjuvant group (cluster) within the adjuvant gene space (LV, SP and LNs): group (G) 1
GO annotation: Cytokine-cytokine receptor interaction (Term: cytokine) ([1]; LV, ID): 0
GO annotation: Cytokine-cytokine receptor interaction|Endocytosis (Term: cytokine) ([1]; LV, ID): 15.4
GO annotation: I-kappaB kinase/NF-kappaB signaling (Term: NF-kappa B signaling pathway) ([1]; LV, ID): 0
GO annotation: NF-kappa B signaling pathway (Term: NF-kappa B signaling pathway) ([1]; LV, ID): 3.77
GO annotation: TNF signaling pathway (Term: TNF signaling pathway) ([1]; LV, ID): 10.7
GO annotation: activation of immune response (Term: immune response) ([1]; LV, ID): 5.67
GO annotation: activation of innate immune response (Term: innate immune response) ([1]; LV, ID): 9.24
GO annotation: acute inflammatory response (Term: inflammatory response) ([1]; LV, ID): 0
GO annotation: adaptive immune response (Term: adaptive immune response) ([1]; LV, ID): 0
GO annotation: apoptotic process (Term: apoptosis) ([1]; LV, ID): 0
GO annotation: apoptotic signaling pathway (Term: apoptosis) ([1]; LV, ID): 0
GO annotation: cell chemotaxis (Term: chemotaxis) ([1]; LV, ID): 0
GO annotation: cell death (Term: cell death) ([1]; LV, ID): 6.04
GO annotation: cell migration (Term: migration) ([1]; LV, ID): 0
GO annotation: cellular response to cytokine stimulus (Term: cytokine) ([1]; LV, ID): 16.7
GO annotation: cellular response to interferon-alpha (Term: IFN alpha) ([1]; LV, ID): 9.3
GO annotation: cellular response to stress (Term: stress) ([1]; LV, ID): 0
GO annotation: chemokine production (Term: chemokine) ([1]; LV, ID): 0
GO annotation: chemokine-mediated signaling pathway (Term: chemokine) ([1]; LV, ID): 0
GO annotation: chemotaxis (Term: chemotaxis) ([1]; LV, ID): 0
GO annotation: cytokine biosynthetic process (Term: cytokine) ([1]; LV, ID): 0
GO annotation: cytokine metabolic process (Term: cytokine) ([1]; LV, ID): 0
GO annotation: cytokine production (Term: cytokine) ([1]; LV, ID): 6.98
GO annotation: cytokine secretion (Term: cytokine) ([1]; LV, ID): 0
GO annotation: cytokine-mediated signaling pathway (Term: cytokine) ([1]; LV, ID): 0
GO annotation: death (Term: cell death) ([1]; LV, ID): 0
GO annotation: defense response (Term: defense response) ([1]; LV, ID): 48.4
GO annotation: defense response to Gram-positive bacterium (Term: defense response) ([1]; LV, ID): 0
GO annotation: defense response to bacterium (Term: defense response) ([1]; LV, ID): 0
GO annotation: defense response to other organism (Term: defense response) ([1]; LV, ID): 23.6
GO annotation: defense response to protozoan (Term: defense response) ([1]; LV, ID): 3.52
GO annotation: defense response to virus (Term: defense response) ([1]; LV, ID): 15
GO annotation: granulocyte chemotaxis (Term: chemotaxis) ([1]; LV, ID): 0
GO annotation: granulocyte migration (Term: migration) ([1]; LV, ID): 0
GO annotation: immune response (Term: immune response) ([1]; LV, ID): 25.5
GO annotation: immune response-activating signal transduction (Term: immune response) ([1]; LV, ID): 5.98
GO annotation: immune response-regulating signaling pathway (Term: immune response) ([1]; LV, ID): 8.39
GO annotation: inflammatory response (Term: inflammatory response) ([1]; LV, ID): 0
GO annotation: innate immune response (Term: innate immune response) ([1]; LV, ID): 34.9
GO annotation: innate immune response-activating signal transduction (Term: innate immune response) ([1]; LV, ID): 7.99
GO annotation: interferon-alpha production (Term: IFN alpha) ([1]; LV, ID): 6.81
GO annotation: intrinsic apoptotic signaling pathway (Term: apoptosis) ([1]; LV, ID): 0
GO annotation: leukocyte chemotaxis (Term: chemotaxis) ([1]; LV, ID): 0
GO annotation: leukocyte migration (Term: migration) ([1]; LV, ID): 0
GO annotation: leukocyte migration involved in inflammatory response (Term: inflammatory response) ([1]; LV, ID): 0
GO annotation: lymphocyte chemotaxis (Term: chemotaxis) ([1]; LV, ID): 0
GO annotation: lymphocyte migration (Term: migration) ([1]; LV, ID): 0
GO annotation: myeloid leukocyte migration (Term: migration) ([1]; LV, ID): 0
GO annotation: negative regulation of apoptotic process (Term: apoptosis) ([1]; LV, ID): 0
GO annotation: negative regulation of cell death (Term: cell death) ([1]; LV, ID): 0
GO annotation: negative regulation of cytokine production (Term: cytokine) ([1]; LV, ID): 0
GO annotation: negative regulation of defense response (Term: defense response) ([1]; LV, ID): 0
GO annotation: negative regulation of immune response (Term: immune response) ([1]; LV, ID): 0
GO annotation: negative regulation of innate immune response (Term: innate immune response) ([1]; LV, ID): 0
GO annotation: negative regulation of programmed cell death (Term: cell death) ([1]; LV, ID): 0
GO annotation: neutrophil chemotaxis (Term: chemotaxis) ([1]; LV, ID): 0
GO annotation: neutrophil migration (Term: migration) ([1]; LV, ID): 0
GO annotation: positive regulation of I-kappaB kinase/NF-kappaB signaling (Term: NF-kappa B signaling pathway) ([1]; LV, ID): 0
GO annotation: positive regulation of adaptive immune response (Term: adaptive immune response) ([1]; LV, ID): 0
GO annotation: positive regulation of apoptotic process (Term: apoptosis) ([1]; LV, ID): 0
GO annotation: positive regulation of cell death (Term: cell death) ([1]; LV, ID): 0
GO annotation: positive regulation of cell migration (Term: migration) ([1]; LV, ID): 0
GO annotation: positive regulation of chemokine production (Term: chemokine) ([1]; LV, ID): 0
GO annotation: positive regulation of chemotaxis (Term: chemotaxis) ([1]; LV, ID): 0
GO annotation: positive regulation of cytokine biosynthetic process (Term: cytokine) ([1]; LV, ID): 0
GO annotation: positive regulation of cytokine production (Term: cytokine) ([1]; LV, ID): 7.86
GO annotation: positive regulation of defense response (Term: defense response) ([1]; LV, ID): 19
GO annotation: positive regulation of immune response (Term: immune response) ([1]; LV, ID): 10.2
GO annotation: positive regulation of inflammatory response (Term: inflammatory response) ([1]; LV, ID): 0
GO annotation: positive regulation of innate immune response (Term: innate immune response) ([1]; LV, ID): 12.4
GO annotation: positive regulation of interferon-alpha production (Term: IFN alpha) ([1]; LV, ID): 7.85
GO annotation: positive regulation of leukocyte chemotaxis (Term: chemotaxis) ([1]; LV, ID): 0
GO annotation: positive regulation of leukocyte migration (Term: migration) ([1]; LV, ID): 0
GO annotation: positive regulation of programmed cell death (Term: cell death) ([1]; LV, ID): 0
GO annotation: positive regulation of response to wounding (Term: wounding) ([1]; LV, ID): 0
GO annotation: positive regulation of tumor necrosis factor superfamily cytokine (Term: cytokine) ([1]; LV, ID): 0
GO annotation: production of molecular mediator of immune response (Term: immune response) ([1]; LV, ID): 0
GO annotation: programmed cell death (Term: cell death) ([1]; LV, ID): 0
GO annotation: regulation of I-kappaB kinase/NF-kappaB signaling (Term: NF-kappa B signaling pathway) ([1]; LV, ID): 0
GO annotation: regulation of adaptive immune response (Term: adaptive immune response) ([1]; LV, ID): 0
GO annotation: regulation of apoptotic process (Term: apoptosis) ([1]; LV, ID): 0
GO annotation: regulation of apoptotic signaling pathway (Term: apoptosis) ([1]; LV, ID): 0
GO annotation: regulation of cell death (Term: cell death) ([1]; LV, ID): 0
GO annotation: regulation of cell migration (Term: migration) ([1]; LV, ID): 0
GO annotation: regulation of chemokine production (Term: chemokine) ([1]; LV, ID): 0
GO annotation: regulation of chemotaxis (Term: chemotaxis) ([1]; LV, ID): 0
GO annotation: regulation of cytokine biosynthetic process (Term: cytokine) ([1]; LV, ID): 0
GO annotation: regulation of cytokine production (Term: cytokine) ([1]; LV, ID): 8.37
GO annotation: regulation of defense response (Term: defense response) ([1]; LV, ID): 26.8
GO annotation: regulation of defense response to virus (Term: defense response) ([1]; LV, ID): 0
GO annotation: regulation of defense response to virus by host (Term: defense response) ([1]; LV, ID): 0
GO annotation: regulation of immune response (Term: immune response) ([1]; LV, ID): 12.4
GO annotation: regulation of inflammatory response (Term: inflammatory response) ([1]; LV, ID): 0
GO annotation: regulation of innate immune response (Term: innate immune response) ([1]; LV, ID): 19.8
GO annotation: regulation of interferon-alpha production (Term: IFN alpha) ([1]; LV, ID): 7.3
GO annotation: regulation of intrinsic apoptotic signaling pathway (Term: apoptosis) ([1]; LV, ID): 0
GO annotation: regulation of leukocyte chemotaxis (Term: chemotaxis) ([1]; LV, ID): 0
GO annotation: regulation of leukocyte migration (Term: migration) ([1]; LV, ID): 0
GO annotation: regulation of programmed cell death (Term: cell death) ([1]; LV, ID): 0
GO annotation: regulation of response to stress (Term: stress) ([1]; LV, ID): 21
GO annotation: regulation of response to wounding (Term: wounding) ([1]; LV, ID): 3.49
GO annotation: regulation of tumor necrosis factor superfamily cytokine production (Term: cytokine) ([1]; LV, ID): 0
GO annotation: response to cytokine (Term: cytokine) ([1]; LV, ID): 26.5
GO annotation: response to interferon-alpha (Term: IFN alpha) ([1]; LV, ID): 11.3
GO annotation: response to stress (Term: stress) ([1]; LV, ID): 40.4
GO annotation: response to wounding (Term: wounding) ([1]; LV, ID): 0
GO annotation: taxis (Term: chemotaxis) ([1]; LV, ID): 0
GO annotation: tumor necrosis factor superfamily cytokine production (Term: cytokine) ([1]; LV, ID): 0
IFN beta: cellular response to interferon-beta ([1]; LV, ID): 16.7
IFN beta: interferon-beta production ([1]; LV, ID): 0
IFN beta: positive regulation of interferon-beta production ([1]; LV, ID): 5.66
IFN beta: regulation of interferon-beta production ([1]; LV, ID): 3.09
IFN beta: response to interferon-beta ([1]; LV, ID): 17.9
IFN gamma: cellular response to interferon-gamma ([1]; LV, ID): 7.37
IFN gamma: interferon-gamma production ([1]; LV, ID): 0
IFN gamma: regulation of interferon-gamma production ([1]; LV, ID): 0
IFN gamma: response to interferon-gamma ([1]; LV, ID): 10.3
interleukin-6: interleukin-6 production ([1]; LV, ID): 0
interleukin-6: positive regulation of interleukin-6 production ([1]; LV, ID): 0
interleukin-6: regulation of interleukin-6 production ([1]; LV, ID): 0
interleukin-12: interleukin-12 production ([1]; LV, ID): 0
interleukin-12: positive regulation of interleukin-12 production ([1]; LV, ID): 0
interleukin-12: regulation of interleukin-12 production ([1]; LV, ID): 0
GO annotation: adaptive immune response based on somatic recombination of immune receptors built from immunoglobulin superfamily domains (Term: adaptive immune response) ([1]; mouse, in vivo): 0
GO annotation: regulation of adaptive immune response based on somatic recombination of immune receptors built from immunoglobulin superfamily domains (Term: adaptive immune response) ([1]; mouse, in vivo): 0
